Test results reported in publication PMC8067754, “Active Transport of Hepatotoxic Pyrrolizidine Alkaloids in HepaRG Cells” (International Journal of Molecular Sciences, 2021).
Where “and” joins values, the source holds several entries; their conditions need not be identical. Identical values can stand only once.

How the values were obtained:
SLC22A1 = molecular target: T1, SLC22A1 (Homo sapiens, UniProt O15245); assay: ASP+ (SLC22A1 substrate) uptake measurement in HepaRG cells; type: cell-based
T1 construct: For measuring the uptake of ASP^+ in HepaRG cells incubated with PAs; endogenous in cells; host or cells: differentiated HepaRG cells (human hepatoma)
T1 sequence (O15245 1-554): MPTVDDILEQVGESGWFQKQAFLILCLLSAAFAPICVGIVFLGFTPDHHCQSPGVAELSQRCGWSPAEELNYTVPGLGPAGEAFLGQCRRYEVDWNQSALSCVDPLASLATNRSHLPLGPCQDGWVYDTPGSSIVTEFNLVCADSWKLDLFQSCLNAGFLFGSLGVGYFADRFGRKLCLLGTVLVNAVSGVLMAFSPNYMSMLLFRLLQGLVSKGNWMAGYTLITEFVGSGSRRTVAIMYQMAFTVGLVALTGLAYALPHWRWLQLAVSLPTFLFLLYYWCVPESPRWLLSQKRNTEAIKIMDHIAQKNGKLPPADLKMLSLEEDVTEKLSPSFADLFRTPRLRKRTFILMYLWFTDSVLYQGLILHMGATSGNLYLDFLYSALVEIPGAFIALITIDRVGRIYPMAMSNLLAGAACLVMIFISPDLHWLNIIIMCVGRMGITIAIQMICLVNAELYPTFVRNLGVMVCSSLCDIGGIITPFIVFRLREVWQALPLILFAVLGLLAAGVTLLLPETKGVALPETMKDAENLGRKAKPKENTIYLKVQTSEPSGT
Description: ASP^+ is an organic cationic mitochondrial dye that only fluoresces inside cells so that fluorescence measured in the cell culture medium can be neglected. […] In parallel, cells were incubated with Qu (100 µM) and TEA (3 mM) as mentioned in Section 4.3. After 24 h, cells were incubated with 1 µM ASP^+ in Hanks’ balanced salt solution (HBSS, Sigma-Aldrich, Taufkirchen, Germany) at 37 °C. Fluorescence was measured after 20 min at ASP^+-specific wavelength (λex = 475 nm and λem = 605 nm) on a TecanM200Pro spectrometer (Tecan Group Ltd., Männedorf, Switzerland) according to Ahlin et al., (2008).

HepaRG cells [1] = assay: PA and PANO content in cell culture medium of HepaRG cells upon pharmacological transporter inhibition (LC-MS/MS); type: in vitro ADME, human
HepaRG cells [2] = assay: as above; type: in vitro ADME, human; remark: listed apart in the source
Description: In the case of TEA, cells were pre-incubated 24 h prior to PA treatment. The inhibitors were applied anew at PA incubation.
(§1) In order to measure time-dependent depletion of PA and PANO content in cell culture medium, cells were seeded at a density of 0.2 × 10^6 cells per well in a 6-well plate and cultivated as described in Section 4.2. After four weeks of cultivation, cells were adapted to serum-free medium and medium substituted with insulin, transferrin, selenium (ITS) serum extender (Capricorn Scientific, Ebsdorfergrund, Germany) 48 h prior to PA incubation for optimal LC-MS/MS measurements. […] Samples were taken after 2 h, 4 h, 8 h and 24 h.
(§2) Briefly, chromatographic separation of PA/PANO analytes was achieved on a 50 × 2.1 mm Kinetex ™ 2.6 μm CoreShell EVO C18 100 Å column protected by a SecurityGuard ™ ULTRA EVO C 18 2.1 mm guard column (both Phenomenex, Aschaffenburg, Germany) at a flow rate of 0.4 mL/min on a Shimadzu high performance liquid chromatography (HPLC) apparatus (LC-20AB, SIL-20AC HT, CTO-20AC, CBM-20A, Duisburg, Germany) coupled to an API4000 triple quadrupole MS (Sciex, Darmstadt, Germany). The following MS parameters were used for measurements in positive electrospray ionisation (ESI+) mode: ionisation voltage 2500 V, nebuliser gas 50 psi, heating gas 50 psi, curtain gas 30 psi, temperature 600 °C, collision gas level 7. The substance specific parameters are summarized in Kaltner et al. 2019 [79].

HepaRG cells [3] = assay: Time-dependent PA depletion and PANO formation in cell culture medium of HepaRG cells at 37 °C and 4 °C (LC-MS/MS)
Description: as §1, §2

## C/C=C1/C[C@@H](C)[C@@](C)(O)C(=O)OCC2=CCN3CC[C@@H](OC1=O)[C@@H]23 [Senecionine, senecionine]
SLC22A1; 1 µM, solv ctrl = 100
  fluorescence [%], MW [%]: 90.9095%
SLC22A1; 10 µM, solv ctrl = 100
  fluorescence [%], MW [%]: 39.1097%
SLC22A1; 50 µM, solv ctrl = 100
  fluorescence [%], MW [%]: 27.2215%
SLC22A1; 100 µM, solv ctrl = 100
  fluorescence [%], MW [%]: 21.3927%
SLC22A1; 250 µM, solv ctrl = 100
  fluorescence [%], MW [%]: 20.0876%
SLC22A1; HepaRG
  interaction with SLC22A1: both inhibitors and substrates
SLC22A1; HepaRG, 24 h
  minimum concentration inhibiting uptake of the SLC22A1-specific substrate ASP+: 10 µM
SLC22A1; HepaRG, 24 h, 1 µM, solv ctrl = 100, read-out: fluorescence [%], single replicates (repl.)
  remaining activity at 1 µM: 82%
HepaRG cells [1]; no inhibitor, 0h
  PA in medium, single replicates (repl.): 100%
HepaRG cells [1]; plus MK-571, 0h
  PA in medium, single replicates (repl.): 100%
HepaRG cells [2]; 8h, no inhibitor, repl. 1-5
  PA content in medium, single replicates: 8.726%
HepaRG cells [2]; 8h, plus Ko143, repl. 1-3
  PA content in medium, single replicates: 4.478% and 4.105%
HepaRG cells [2]; no inhibitor, 0h
  PA in medium, Mean [%]: 100%
HepaRG cells [2]; no inhibitor, 4h
  PA in medium, Mean [%]: 25.6172%
  PA in medium, single replicates (repl.): 20.2703% and 36.4212% and 41.9726% and 18.235% and 11.1867%
HepaRG cells [2]; no inhibitor, 8h
  PA in medium, Mean [%]: 8.337%
  PA in medium, single replicates (repl.): 5.95% and 13.0309% and 15.415% and 3.983% and 3.308%
HepaRG cells [2]; no inhibitor, 24h
  PA in medium, Mean [%]: 0.1453%
  PA in medium, single replicates (repl.): 0% (3×) and 0.3901% and 0.3363%
HepaRG cells [2]; plus CsA, 0h
  PA in medium, Mean [%]: 100%
  PA in medium, single replicates (repl.): 100%
HepaRG cells [2]; plus CsA, 4h
  PA in medium, Mean [%]: 83.5787%
  PA in medium, single replicates (repl.): 100.41% and 74.0814%
HepaRG cells [2]; plus CsA, 8h
  PA in medium, Mean [%]: 79.3329%
  PA in medium, single replicates (repl.): 78.1367% and 71.9298%
HepaRG cells [2]; plus CsA, 24h
  PA in medium, Mean [%]: 63.0445%
  PA in medium, single replicates (repl.): 81.6295% and 67.7648% and 39.7392%
HepaRG cells [2]; plus Ko143, 0h
  PA in medium, Mean [%]: 100%
  PA in medium, single replicates (repl.): 100%
HepaRG cells [2]; plus Ko143, 4h
  PA in medium, Mean [%]: 27.3505%
  PA in medium, single replicates (repl.): 21.9905% and 15.6142% and 44.4468%
HepaRG cells [2]; plus Ko143, 8h
  PA in medium, Mean [%]: 9.179%
  PA in medium, single replicates (repl.): 5.449% and 3.069% and 19.0198%
HepaRG cells [2]; plus Ko143, 24h
  PA in medium, Mean [%]: 0.2576%
  PA in medium, single replicates (repl.): 0% (2×) and 0.7727%
HepaRG cells [2]; plus MK-571, 0h
  PA in medium, Mean [%]: 100%
HepaRG cells [2]; plus MK-571, 4h
  PA in medium, Mean [%]: 87.0627%
  PA in medium, single replicates (repl.): 81.9366% and 96.8826% and 82.369%
HepaRG cells [2]; plus MK-571, 8h
  PA in medium, Mean [%]: 64.688%
  PA in medium, single replicates (repl.): 76.7573% and 68.0778% and 49.229%
HepaRG cells [2]; plus MK-571, 24h
  PA in medium, Mean [%]: 22.3298%
  PA in medium, single replicates (repl.): 51.6203% and 9.723% and 5.646%
HepaRG cells [2]; plus Qu, 0h
  PA in medium, Mean [%]: 100%
  PA in medium, single replicates (repl.): 100%
HepaRG cells [2]; plus Qu, 4h
  PA in medium, single replicates (repl.): 89.6889% and 96.62%
HepaRG cells [2]; plus Qu, 8h
  PA in medium, single replicates (repl.): 89.9877% and 75.5125% and 84.2%
HepaRG cells [2]; plus Qu, 24h
  PA in medium, single replicates (repl.): 67.9609% and 61.3936% and 73.11%
HepaRG cells [2]; plus TEA, 0h
  PA in medium, Mean [%]: 100%
  PA in medium, single replicates (repl.): 100%
HepaRG cells [2]; plus TEA, 4h
  PA in medium, Mean [%]: 61.4268%
  PA in medium, single replicates (repl.): 53.1634% and 46.1792% and 84.938%
HepaRG cells [2]; plus TEA, 8h
  PA in medium, Mean [%]: 43.7039%
  PA in medium, single replicates (repl.): 34.8001% and 27.837%
HepaRG cells [2]; plus TEA, 24h
  PA in medium, Mean [%]: 19.1005%
  PA in medium, single replicates (repl.): 7.953% and 7.514% and 41.8346%
HepaRG cells [3]
  reduction of PA content in the supernatant: highest decline
  uptake and toxicity (grading): strong
HepaRG cells [3]; human
  PANO in medium, Mean [%]: 0%
  PANO in medium, single replicates (repl.): 0%
